Assay results reported in patent publication US20220002332A1, “SCUTELLARIN AMIDE DERIVATIVES, AND PREPARATION METHODS AND USES THEREOF” (HEILONGJIANG BAYI AGRICULTURAL UNIVERSITY, priority 2020, published 2022).

Key:
Assay type in all cases: cell-based
[1] = test system: human acute leukemia mononuclear macrophage cell line THP-1; assay: Cell inhibitory activity (CCK-8 anti-proliferative) on THP-1; conditions: THP-1 cells, 72 hours with drug, CCK-8, 450 nm
Method: (§1) Cell lines: human promyelocytic leukemia cell line HL-60, human acute leukemia mononuclear macrophage cell line THP-1, human liver cancer cell line HepG-2
(§2) Test Method for Cell Inhibitory Activity
(§3) Cells are routinely cultured in an incubator at 37° C. and 5% CO2 saturated humidity. The culture medium is RPMI1640 cell culture medium containing 10% of heat-inactivated fetal bovine serum, 100 U/mL of penicillin and 100 U/mL of streptomycin. The culture medium is replaced after 48 hours. After the cells adhere to the wall, they are digested with 0.25% trypsin and passage.
(§4) A vial of cells in the logarithmic growth phase and in good condition is digested with a digestion solution (0.125% trypsin+0.01% EDTA); cell count is 2 to 4×10^4 cell/mL; a cell suspension is made and inoculated on a 96-well plate, 100 μL/well, and cultured in a constant temperature CO2 incubator for 24 hours. The medium is replaced; the test drug is added, 100 μL/well, and cultured for 72 hours. CCK-8 is added to a 96-well plate, 50 μL/well, and incubated in an incubator for 4 hours. The supernatant is aspirated; DMSO is added, 200 μL/well, and shaken on a plate shaker for 10 minutes.

[2] = test system: human promyelocytic leukemia cell line HL-60; assay: Cell inhibitory activity (CCK-8 anti-proliferative) on HL-60; conditions: HL-60 cells, 72 hours with drug, CCK-8, 450 nm
Method: as §1, §2, §3, §4

[3] = test system: human liver cancer cell line HepG-2; assay: Cell inhibitory activity (CCK-8 anti-proliferative) on HepG-2; conditions: HepG2, HepG-2 cells, 72 hours with drug, CCK-8, 450 nm
Method: as §1, §2, §3, §4

SMILES	IC50 [1] [µM]	IC50 [2] [µM]	IC50 [3] [µM]
O=C(Nc1ccccc1)C1OC(Oc2cc3oc(-c4ccc(OCc5ccccc5)cc4)cc(=O)c3c(O)c2OCc2ccccc2)C(O)C(O)C1O (stereo not drawn) [Example 5]	35.37 ± 0.23	20 ± 0.19	45.7 ± 2.15
O=C(Nc1ccc(Cl)cc1)C1OC(Oc2cc3oc(-c4ccc(OCc5ccccc5)cc4)cc(=O)c3c(O)c2OCc2ccccc2)C(O)C(O)C1O (stereo not drawn) [Example 6]	81.36 ± 0.35	75.88 ± 0.31	51.6 ± 0.97
O=C(Nc1cccc(Cl)c1)C1OC(Oc2cc3oc(-c4ccc(OCc5ccccc5)cc4)cc(=O)c3c(O)c2OCc2ccccc2)C(O)C(O)C1O (stereo not drawn) [Example 7]	13.67 ± 0.13	15.43 ± 0.11	11.2 ± 1.07
Cc1cccc(NC(=O)C2OC(Oc3cc4oc(-c5ccc(OCc6ccccc6)cc5)cc(=O)c4c(O)c3OCc3ccccc3)C(O)C(O)C2O)c1 (stereo not drawn) [Example 8]	16.1 ± 0.57	11.8 ± 0.34	12 ± 3.52
Cc1ccccc1NC(=O)C1OC(Oc2cc3oc(-c4ccc(OCc5ccccc5)cc4)cc(=O)c3c(O)c2OCc2ccccc2)C(O)C(O)C1O (stereo not drawn) [Example 9]	26.8 ± 0.32	27.53 ± 0.15	19.4 ± 1.11
Cc1ccc(NC(=O)C2OC(Oc3cc4oc(-c5ccc(OCc6ccccc6)cc5)cc(=O)c4c(O)c3OCc3ccccc3)C(O)C(O)C2O)cc1 (stereo not drawn) [Example 10]	5.75 ± 0.36	13 ± 0.28	7.23 ± 0.31
O=C(Nc1ccccc1O)C1OC(Oc2cc3oc(-c4ccc(OCc5ccccc5)cc4)cc(=O)c3c(O)c2OCc2ccccc2)C(O)C(O)C1O (stereo not drawn) [Example 11]	6.11 ± 0.97	2.91 ± 0.69	5.11 ± 0.43
O=C(Nc1ccc(O)cc1)C1OC(Oc2cc3oc(-c4ccc(OCc5ccccc5)cc4)cc(=O)c3c(O)c2OCc2ccccc2)C(O)C(O)C1O (stereo not drawn) [Example 12]	33.9 ± 0.78	58.9 ± 0.97	36.1 ± 0.67
COc1ccc(NC(=O)C2OC(Oc3cc4oc(-c5ccc(OCc6ccccc6)cc5)cc(=O)c4c(O)c3OCc3ccccc3)C(O)C(O)C2O)cc1 (stereo not drawn) [Example 13]	26.3 ± 0.94	20.9 ± 0.46	23.9 ± 0.88
COc1ccccc1NC(=O)C1OC(Oc2cc3oc(-c4ccc(OCc5ccccc5)cc4)cc(=O)c3c(O)c2OCc2ccccc2)C(O)C(O)C1O (stereo not drawn) [Example 14]	12.5 ± 0.35	1.7 ± 0.11	6.23 ± 2.03
COc1cccc(NC(=O)C2OC(Oc3cc4oc(-c5ccc(OCc6ccccc6)cc5)cc(=O)c4c(O)c3OCc3ccccc3)C(O)C(O)C2O)c1 (stereo not drawn) [Example 15]	31.62 ± 0.25	4.28 ± 0.31	29.2 ± 0.77
CCCNC(=O)C1OC(Oc2cc3oc(-c4ccc(OCc5ccccc5)cc4)cc(=O)c3c(O)c2OCc2ccccc2)C(O)C(O)C1O (stereo not drawn) [Example 16]	22.4 ± 0.38	30.6 ± 0.57	21 ± 0.81
CC(C)NC(=O)C1OC(Oc2cc3oc(-c4ccc(OCc5ccccc5)cc4)cc(=O)c3c(O)c2OCc2ccccc2)C(O)C(O)C1O (stereo not drawn) [Example 17]	37.3 ± 0.93	54.1 ± 1.21	39.5 ± 1.03
CCCCCCNC(=O)C1OC(Oc2cc3oc(-c4ccc(OCc5ccccc5)cc4)cc(=O)c3c(O)c2OCc2ccccc2)C(O)C(O)C1O (stereo not drawn) [Example 18]	35.8 ± 1.24	59.1 ± 0.91	46.2 ± 2.03
O=C(NC1CCCCC1)C1OC(Oc2cc3oc(-c4ccc(OCc5ccccc5)cc4)cc(=O)c3c(O)c2OCc2ccccc2)C(O)C(O)C1O (stereo not drawn) [Example 19]	16.8 ± 0.19	58.8 ± 2.31	17.6 ± 1.66
COc1ccc(-c2cc(=O)c3c(O)c(OC)c(OC4OC(C(=O)Nc5ccccc5)C(O)C(O)C4O)cc3o2)cc1 (stereo not drawn) [Example 20]	63.12 ± 0.46	85.23 ± 0.75	16.8 ± 0.19

SMILES	IC50 [1] [µM]	IC50 [2] [µM]	IC50 [3] [µM]
COc1ccc(-c2cc(=O)c3c(O)c(OC)c(OC4OC(C(=O)Nc5ccc(Cl)cc5)C(O)C(O)C4O)cc3o2)cc1 (stereo not drawn) [Example 21]	4.47 ± 0.35	4.86 ± 0.21	3.21 ± 0.75
COc1ccc(-c2cc(=O)c3c(O)c(OC)c(OC4OC(C(=O)Nc5cccc(Cl)c5)C(O)C(O)C4O)cc3o2)cc1 (stereo not drawn) [Example 22]	7.02 ± 0.27	3.37 ± 0.22	5.42 ± 0.53
COc1ccc(-c2cc(=O)c3c(O)c(OC)c(OC4OC(C(=O)Nc5cccc(C)c5)C(O)C(O)C4O)cc3o2)cc1 (stereo not drawn) [Example 23]	4.62 ± 0.2	5.49 ± 0.16	3.15 ± 0.46
COc1ccc(-c2cc(=O)c3c(O)c(OC)c(OC4OC(C(=O)Nc5ccccc5C)C(O)C(O)C4O)cc3o2)cc1 (stereo not drawn) [Example 24]	27.8 ± 1.12	64.2 ± 3.41	24.3 ± 0.92
COc1ccc(-c2cc(=O)c3c(O)c(OC)c(OC4OC(C(=O)Nc5ccc(C)cc5)C(O)C(O)C4O)cc3o2)cc1 (stereo not drawn) [Example 25]	34.4 ± 1.89	61.7 ± 2.97	39.7 ± 2.31
COc1ccc(-c2cc(=O)c3c(O)c(OC)c(OC4OC(C(=O)Nc5ccccc5O)C(O)C(O)C4O)cc3o2)cc1 (stereo not drawn) [Example 26]	40.1 ± 1.57	15.4 ± 0.88	32.1 ± 2.03
COc1ccc(-c2cc(=O)c3c(O)c(OC)c(OC4OC(C(=O)Nc5ccc(O)cc5)C(O)C(O)C4O)cc3o2)cc1 (stereo not drawn) [Example 27]	89.03 ± 0.59	59.3 ± 2.18	51.2 ± 0.87
COc1ccc(NC(=O)C2OC(Oc3cc4oc(-c5ccc(OC)cc5)cc(=O)c4c(O)c3OC)C(O)C(O)C2O)cc1 (stereo not drawn) [Example 28]	53.8 ± 3.58	47.2 ± 2.71	39.5 ± 1.03
COc1ccc(-c2cc(=O)c3c(O)c(OC)c(OC4OC(C(=O)Nc5ccccc5OC)C(O)C(O)C4O)cc3o2)cc1 (stereo not drawn) [Example 29]	19.7 ± 0.89	53.2 ± 3.47	29 ± 2.26
COc1ccc(-c2cc(=O)c3c(O)c(OC)c(OC4OC(C(=O)Nc5cccc(OC)c5)C(O)C(O)C4O)cc3o2)cc1 (stereo not drawn) [Example 30]	21 ± 0.49	2.95 ± 0.31	15 ± 0.85
CCCNC(=O)C1OC(Oc2cc3oc(-c4ccc(OC)cc4)cc(=O)c3c(O)c2OC)C(O)C(O)C1O (stereo not drawn) [Example 31]	41.6 ± 1.37	21.8 ± 0.99	33 ± 1.13
COc1ccc(-c2cc(=O)c3c(O)c(OC)c(OC4OC(C(=O)NC(C)C)C(O)C(O)C4O)cc3o2)cc1 (stereo not drawn) [Example 32]	19 ± 0.36	28.2 ± 1.19	26.6 ± 2.19
CCCCCCNC(=O)C1OC(Oc2cc3oc(-c4ccc(OC)cc4)cc(=O)c3c(O)c2OC)C(O)C(O)C1O (stereo not drawn) [Example 33]	5.76 ± 0.33	4.21 ± 0.15	3.69 ± 0.63
COc1ccc(-c2cc(=O)c3c(O)c(OC)c(OC4OC(C(=O)NC5CCCCC5)C(O)C(O)C4O)cc3o2)cc1 (stereo not drawn) [Example 34]	19.1 ± 0.78	28.7 ± 0.54	11.2 ± 0.72
O=C(O)[C@H]1O[C@@H](Oc2cc3oc(-c4ccc(O)cc4)cc(=O)c3c(O)c2O)[C@H](O)[C@@H](O)[C@@H]1O [Scutellarin]	48.5 ± 2.21	22.7 ± 1.97	56.1 ± 1.23
